Results taken from PMC11356900, “Synthesis, Structural Properties and Biological Activities of Novel Hydrazones of 2-, 3-, 4-Iodobenzoic Acid” (Molecules, 2024).
Converted amounts (≈) assume the structure as drawn.

Tests used:
[1] = tested on: Staphylococcus aureus ATCC 29213; assay: Broth microdilution MIC/MBC; conditions: ATCC29213
[2] = tested on: T47D cell line; assay: MTT cytotoxicity assay; type: cell-based
Protocol: (§1) Among all the newly synthesized compounds, four compounds designated as: 14, 20, 21 and 27 were selected for further testing of their cytotoxic properties at the doses of 10, 25, 50, 75 and 100 µM. The cytotoxic properties of the above compounds were tested on the cancer cell lines, i.e., A549 (ECACC 86012804) (non-small-cell lung cancer), T47D (ECACC 85102201) (breast cancer), HeLa (ATCC® CCL-2™) (cervical cancer) and normal line L929 (NCTC clone 929, ATCC® CCL-1™) (mouse fibroblasts) using the MTT test for 24- and 48 h cultures.
(§2) A549 (ECACC 86012804) (non-small-cell lung cancer) and T47D (ECACC 85102201) (breast cancer) were obtained from ECACC and propagated in Dulbecco’s Minimal Essential Medium, supplemented with 2 mM of glutamine, antibiotics ([…] streptomycin, 1% of 100 U/L penicillin) and 10% Fetal Bovine Serum. HeLa (ATCC® CCL-2™) (cervical cancer) and L929 (NCTC clone 929, ATCC® CCL-1™) (mouse fibroblasts) cell lines were obtained from ATCC and propagated in the Eagle Minimal Essential Medium supplemented with antibiotics ([…] streptomycin, 1% of 100 U/L penicillin) and with 10% and 5% FBS, respectively. The cell line was routinely grown in 75 cm^2 tissue culture flasks and kept in an incubator (humidified atmosphere of 5% CO2 at 37 °C). All examined cell lines were tested against mycoplasma contamination with microbiological assays.
(§3) The cell viability of tested compounds (14, 20, 21 and 27) was assessed by the MTT assay. In brief, the exponentially growing cells were plated in 100 μL/well in 96-well plates. After 24 h culturing, the cells were treated with different concentrations of compounds (range 10–100 μM). After 24 and 48 h of incubation, 10 μL of 5 mg/mL MTT was added to each well and the plates were incubated at 37 °C for additional 4 h. The medium was subsequently removed, the purple-colored precipitates of formazan were dissolved in 100 μL of DMSO. The color absorbance was recorded at 570 nm using a BioTek model EPOCH ELISA plate reader. All experiments were performed in triplicate. The absorbance values were in the range of linearity of the Lambert–Beer law.

[3] = tested on: HeLa cell line; assay: MTT cytotoxicity assay; type: cell-based; conditions: for cytotoxicity: 24 h culture
Protocol: as §1, §2, §3

[4] = tested on: A549 cell line; assay: MTT cytotoxicity assay; type: cell-based
Protocol: as §1, §2, §3

[5] = tested on: Micrococcus luteus ATCC 10240; assay: Broth microdilution MIC/MBC; conditions: Micrococcus luteus, ATCC10240
[6] = tested on: Pseudomonas aeruginosa ATCC 9027; assay: Broth microdilution MIC/MBC; conditions: ATCC9027
[7] = tested on: Staphylococcus aureus ATCC 43300; assay: Broth microdilution MIC/MBC; conditions: ATCC43300 / MRSA
[8] = tested on: Klebsiella pneumoniae ATCC 13883; assay: Broth microdilution MIC/MBC; conditions: ATCC13883
[9] = tested on: Staphylococcus epidermidis ATCC 12228; assay: Broth microdilution MIC/MBC; conditions: ATCC12228
[10] = tested on: Escherichia coli ATCC 25922; assay: Broth microdilution MIC/MBC; conditions: ATCC25922

**Q.** What does the source list for O=C(N/N=C/c1cc(Cl)cc(I)c1O)c1ccc(I)cc1 [Compound 27, N-[(5-chloro-2-hydroxy-3-iodophenyl)methylidene]-4-iodobenzohydrazide]?
**A.** MBC [1]: 125 µg/mL (≈ 237 µM); MIC [1]: 62.5 µg/mL (≈ 119 µM); cell proliferation ([2]; 24h, 10 µM, Repeat No 1): 96%; cell proliferation ([2]; 24h, 10 µM, Repeat No 2): 91%; cell proliferation ([2]; 24h, 25 µM, Repeat No 1): 91%; cell proliferation ([2]; 24h, 25 µM, Repeat No 2): 82%; cell proliferation ([2]; 24h, 50 µM, Repeat No 1): 83%; cell proliferation ([2]; 24h, 50 µM, Repeat No 2): 79%; cell proliferation ([2]; 24h, 75 µM, Repeat No 1): 84%; cell proliferation ([2]; 24h, 75 µM, Repeat No 2): 87%; cell proliferation ([2]; 24h, 100 µM, Repeat No 1): 86%; cell proliferation ([2]; 24h, 100 µM, Repeat No 2): 91%; cell proliferation ([2]; 48h, 10 µM, Repeat No 1): 82%; cell proliferation ([2]; 48h, 10 µM, Repeat No 2): 75%; cell proliferation ([2]; 48h, 25 µM, Repeat No 1): 88%; cell proliferation ([2]; 48h, 25 µM, Repeat No 2): 84%; cell proliferation ([2]; 48h, 50 µM, Repeat No 1): 81%; cell proliferation ([2]; 48h, 50 µM, Repeat No 2): 80%; cell proliferation ([2]; 48h, 75 µM, Repeat No 1): 79%; cell proliferation ([2]; 48h, 75 µM, Repeat No 2): 72%; cell proliferation ([2]; 48h, 100 µM, Repeat No 1): 83%; cell proliferation ([2]; 48h, 100 µM, Repeat No 2): 81%; cell proliferation ([3]; 24h, 10 µM, Repeat No 1): 74%; cell proliferation ([3]; 24h, 10 µM, Repeat No 2): 83%; cell proliferation ([3]; 24h, 25 µM, Repeat No 1): 69%; cell proliferation ([3]; 24h, 25 µM, Repeat No 2): 73%; cell proliferation ([3]; 24h, 50 µM, Repeat No 1): 61%; cell proliferation ([3]; 24h, 50 µM, Repeat No 2): 67%; cell proliferation ([3]; 24h, 75 µM, Repeat No 1): 72%; cell proliferation ([3]; 24h, 75 µM, Repeat No 2): 69%; cell proliferation ([3]; 24h, 100 µM, Repeat No 1): 63%; cell proliferation ([3]; 24h, 100 µM, Repeat No 2): 59%; cytotoxicity ([3]; dose of 50 µM): 37%; cytotoxicity ([3]; dose of 100 µM): 41%; cell proliferation ([3]; 48h, 10 µM, Repeat No 1): 77%; cell proliferation ([3]; 48h, 10 µM, Repeat No 2): 82%; cell proliferation ([3]; 48h, 25 µM, Repeat No 1): 82%; cell proliferation ([3]; 48h, 25 µM, Repeat No 2): 71%; cell proliferation ([3]; 48h, 50 µM, Repeat No 1): 61%; cell proliferation ([3]; 48h, 50 µM, Repeat No 2): 49%; cell proliferation ([3]; 48h, 75 µM, Repeat No 1): 51%; cell proliferation ([3]; 48h, 75 µM, Repeat No 2): 43%; cell proliferation ([3]; 48h, 100 µM, Repeat No 1): 63%; cell proliferation ([3]; 48h, 100 µM, Repeat No 2): 57%; cell proliferation ([4]; A549, 24h, 10 µM, Repeat No 1): 95%; cell proliferation ([4]; A549, 24h, 10 µM, Repeat No 2): 92%; cell proliferation ([4]; A549, 24h, 25 µM, Repeat No 1): 97%; cell proliferation ([4]; A549, 24h, 25 µM, Repeat No 2): 89%; cell proliferation ([4]; A549, 24h, 50 µM, Repeat No 1): 94%; cell proliferation ([4]; A549, 24h, 50 µM, Repeat No 2): 87%; cell proliferation ([4]; A549, 24h, 75 µM, Repeat No 1): 87%; cell proliferation ([4]; A549, 24h, 75 µM, Repeat No 2): 92%; cell proliferation ([4]; A549, 24h, 100 µM, Repeat No 1): 109%; cell proliferation ([4]; A549, 24h, 100 µM, Repeat No 2): 103%; effect on proliferation in words ([4]; A549, 24 h culture, dose of 100 µM): increase in the proliferation of cancer cells; cell proliferation ([4]; A549, 48h, 10 µM, Repeat No 1): 84%; cell proliferation ([4]; A549, 48h, 10 µM, Repeat No 2): 87%; cell proliferation ([4]; A549, 48h, 25 µM, Repeat No 1): 87%; cell proliferation ([4]; A549, 48h, 25 µM, Repeat No 2): 82%; cell proliferation ([4]; A549, 48h, 50 µM, Repeat No 1): 88%; cell proliferation ([4]; A549, 48h, 50 µM, Repeat No 2): 89%; cell proliferation ([4]; A549, 48h, 75 µM, Repeat No 1): 91%; cell proliferation ([4]; A549, 48h, 75 µM, Repeat No 2): 87%; cell proliferation ([4]; A549, 48h, 100 µM, Repeat No 1): 98%; cell proliferation ([4]; A549, 48h, 100 µM, Repeat No 2): 95%; MBC [5]: 250 µg/mL (≈ 475 µM); MIC [5]: 125 µg/mL (≈ 237 µM); MBC [6]: > 1000 µg/mL; MBC/MIC [6]: > 1; MIC [6]: 1000 µg/mL (≈ 1900 µM); MBC [7]: 250 µg/mL (≈ 475 µM); MIC [7]: 62.5 µg/mL (≈ 119 µM); MBC [8]: > 1000 µg/mL; MBC/MIC [8]: > 2; MIC [8]: 500 µg/mL (≈ 950 µM); MBC [9]: 31.2 µg/mL (≈ 59.4 µM); MIC [9]: 31.2 µg/mL (≈ 59.4 µM); melting point: 200 to 201 °C; MBC [10]: 500 µg/mL (≈ 950 µM); MBC/MIC [10]: 1; MIC [10]: 500 µg/mL (≈ 950 µM)
